Measurements reported in patent US5821084A, “Osteoblast-testicular protein tyrosine phosphatase” (The Regents of the University of Michigan, priority 1994, dated 1998).

Experiments:
[1] = system: OST-PTP mRNA; assay type: cell-based, rat
Description: Poly A^+ RNA was extracted from an array of adult rat tissues: uterus, ovary, testis, kidney, heart, liver, lung, spleen, brain, skeletal muscle, smooth muscle, pancreas and retina. Poly A^+ RNA derived from UMR106 was used as a standard to control for expression in bone. […] RNA fractionated in such gels was transferred to Magnagraph nylon membrane (MSI) in 20× SSC by capillary action method. Two different types of probe; riboprobe (RNA) or random primed cDNA probe, were used depending on the experiment. […] All DNA probes were labeled with ^32 P-a (3000 Ci/mM) by the Random Primers DNA labeling kit using manufacturer's recommended conditions (GibcoBRL Life Technologies). […] For hybridizations, 10^6 cpms/ml probe was added. Following hybridization, the blots were washed twice at room temperature in 1× SSC+0.1% SDS (30 minutes per wash), and then washed twice in 0.1× SSC+0.1% SDS (30 minutes per wash) once at room temperature and once at 68° C. The prehybridization/hybridization conditions for the DNA probes were the same as described above except the temperature was lowered to 43° C. […] The washes were done as described above. The results were visualized either by autoradiography or by scanning with a phosphorimager (Molecular Dynamics). All quantifications were normalized against the amount of cyclophilin message which was considered to be standard for any given conditions.
Parathyroid hormone is an important bone hormone. […] The UMR106 cells were cultured as described above until confluence. The cells were then washed twice in phosphate buffered saline followed by incubation for 5 hours at 37° C. in serum free DMEM. After serum deprivation, 100 nM parathyroid hormone (PTH) was added to the cultures and incubation continued for 4, 8, 12, and 16 hours at 37° C. RNA was then isolated from the cells as described above.

[2] = system: other two novel PTPase clones; assay: Northern blot of other novel PTPase clones in PTH-treated UMR106 cells; assay type: cell-based, rat; conditions: PTH treatment
Experimental: RNA was analyzed by Northern blot hybridization to determine the tissue specificity of the OST-PTP clone. Poly A^+ RNA was extracted from an array of adult rat tissues: uterus, ovary, testis, kidney, heart, liver, lung, spleen, brain, skeletal muscle, smooth muscle, pancreas and retina. Poly A^+ RNA derived from UMR106 was used as a standard to control for expression in bone. The RNA preparations were quantitated by absorbance at 260 nm and, depending on the message abundance, either total cellular RNA or poly A+ RNA was electrophoretically separated in a 6.6% formaldehyde-1%agarose gel. RNA fractionated in such gels was transferred to Magnagraph nylon membrane (MSI) in 20× SSC by capillary action method. Two different types of probe; riboprobe (RNA) or random primed cDNA probe, were used depending on the experiment. The riboprobe used for hybridization corresponded to the extracellular domain of OST-PTP, and was labeled by in vitro transcription using ^32 P-a (3000 Ci/mM) as described by manufacturers (Promega). […] All quantifications were normalized against the amount of cyclophilin message which was considered to be standard for any given conditions. […]

[3] = system: UMR106 cells; conditions: cited from earlier work

parathyroid hormone [PTH]
change of OST-PTP message at later time points ([1]; UMR106 cells, 100 nM PTH, later than 4 hours (8, 12, 16 hours)): further increases
PTH concentration effective in increasing OST-PTP transcripts ([1]; UMR106 cells, 18 hours): 1 nM
effect on OST-PTP transcripts of exposure for less than 4 hours ([1]; UMR106 cells, regardless of concentration (10 pM-100 nM)): no significant effect
increase of PTP-OST (OST-PTP) message ([1]; umr106 cells, 4 h, 0.1 µM): ≤ 5 fold
effect of PTH on the other two novel PTPase clones [2]: Neither of the other two novel PTPase clones were altered
effect on cell proliferation and DNA synthesis [3]: inhibit cell proliferation, and DNA synthesis
